Measured values taken from PubChem BioAssay (NCI).
Values joined by “and” are separate entries in the source; they are usually repeats but may differ in a detail not shown here. Equal values may be shown once.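 Assay format: 96-well plates, 48-hour exposure. GI50 marks 50% less growth. TGI: total growth inhibition.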

Key:
Experiment in all cases: DTP human tumour cell line panel, 48 h
NCI-H23 lung = test system: NCI-H23 lung
786-0 renal = test system: 786-0 renal
TK-10 renal = test system: TK-10 renal
BT-549 breast = test system: BT-549 breast
UACC-62 melanoma = test system: UACC-62 melanoma
ACHN renal = test system: ACHN renal
SN12C renal = test system: SN12C renal
U251 CNS = test system: U251 CNS
SR leukemia = test system: SR leukemia
DU-145 prostate = test system: DU-145 prostate

CC1SC(c2cccc(Oc3ccccc3)c2)N(CCc2cccs2)C1=O (stereo not drawn)
GI50 (NCI-H23 lung): 0.718 µM | TGI (NCI-H23 lung): 3.55 µM | GI50 (786-0 renal): 1.2 µM | TGI (786-0 renal): 2.83 µM | GI50 (TK-10 renal): 1.59 µM | TGI (TK-10 renal): 4.28 µM | GI50 (BT-549 breast): 1.04 µM | TGI (BT-549 breast): 2.4 µM | GI50 (UACC-62 melanoma): 0.676 µM | TGI (UACC-62 melanoma): 2.22 µM | GI50 (ACHN renal): 1.14 µM | TGI (ACHN renal): 4.97 µM | GI50 (SN12C renal): 1.25 µM | TGI (SN12C renal): 2.7 µM | GI50 (U251 CNS): 1.11 µM | TGI (U251 CNS): 2.49 µM | GI50 (SR leukemia): 0.585 µM | TGI (SR leukemia): 4.19 µM | GI50 (DU-145 prostate): 1.6 µM | TGI (DU-145 prostate): 3.88 µM

Cn1c(N)c(N=Nc2ccc(S(N)(=O)=O)cc2)c(=O)n(C)c1=O
TGI (NCI-H23 lung): > 100 µM | TGI (786-0 renal): > 100 µM | TGI (TK-10 renal): > 100 µM | TGI (BT-549 breast): > 100 µM | TGI (UACC-62 melanoma): > 100 µM | TGI (ACHN renal): > 100 µM | TGI (SN12C renal): > 100 µM | TGI (U251 CNS): > 100 µM | TGI (SR leukemia): > 100 µM | TGI (DU-145 prostate): > 100 µM

Cc1nn(-c2ccccc2)c2ncc3c(c12)C(=O)N(Cc1ccccc1)C3=O
GI50 (NCI-H23 lung): 9.64 µM | TGI (NCI-H23 lung): 66.1 µM | GI50 (786-0 renal): 1.94 µM | TGI (786-0 renal): 5.12 µM | GI50 (BT-549 breast): 4.23 µM | TGI (BT-549 breast): 38.6 µM | GI50 (UACC-62 melanoma): 21.5 µM | TGI (UACC-62 melanoma): > 100 µM | GI50 (ACHN renal): 3.57 µM | TGI (ACHN renal): 13.7 µM | GI50 (SN12C renal): 9.29 µM | TGI (SN12C renal): > 100 µM | GI50 (U251 CNS): 3.12 µM | TGI (U251 CNS): 14.2 µM | GI50 (SR leukemia): 5.86 µM | TGI (SR leukemia): > 100 µM | GI50 (DU-145 prostate): 72.2 µM | TGI (DU-145 prostate): > 100 µM

CN1CCN(Cc2ccc(NC(=O)c3cncc(C#Cc4c(N)ncc5ccc(F)cc45)c3)cc2C(F)(F)F)CC1
GI50 (NCI-H23 lung): 0.574 µM | TGI (NCI-H23 lung): 4.58 µM | GI50 (786-0 renal): 0.911 µM | TGI (786-0 renal): 1.81 µM | GI50 (TK-10 renal): 0.96 µM | TGI (TK-10 renal): 2.29 µM | GI50 (BT-549 breast): 2.14 µM | TGI (BT-549 breast): 8.66 µM | GI50 (UACC-62 melanoma): 0.64 µM | TGI (UACC-62 melanoma): 1.81 µM | GI50 (ACHN renal): 0.562 µM | TGI (ACHN renal): 1.27 µM | GI50 (SN12C renal): 0.937 µM | TGI (SN12C renal): 5.3 µM | GI50 (U251 CNS): 1.05 µM | TGI (U251 CNS): 4 µM | GI50 (SR leukemia): 0.809 µM | TGI (SR leukemia): 11.3 µM | GI50 (DU-145 prostate): 1.45 µM | TGI (DU-145 prostate): 7.02 µM

COc1ccc(-c2nccn2-c2cc(OC)c(OC)c(OC)c2)cc1
GI50 (NCI-H23 lung): 9.09 µM | TGI (NCI-H23 lung): > 100 µM | GI50 (786-0 renal): 13.6 µM | TGI (786-0 renal): > 100 µM | GI50 (TK-10 renal): 10.7 µM | TGI (TK-10 renal): > 100 µM | GI50 (BT-549 breast): > 32.1 µM | TGI (BT-549 breast): > 100 µM | GI50 (UACC-62 melanoma): 0.675 µM | TGI (UACC-62 melanoma): 24.1 µM | GI50 (ACHN renal): 6.07 µM | TGI (ACHN renal): > 100 µM | GI50 (SN12C renal): 9.81 µM | TGI (SN12C renal): > 100 µM | GI50 (U251 CNS): 3.85 µM | TGI (U251 CNS): > 100 µM | GI50 (SR leukemia): > 100 µM | TGI (SR leukemia): > 100 µM | GI50 (DU-145 prostate): 13.1 µM | TGI (DU-145 prostate): > 100 µM

C[CH2][Ge]1([CH2]C)[CH2]CC2(CCN(CCCN(C)C)C2)C[CH2]1
GI50 (NCI-H23 lung): 2.47 µM and 4.11 µM | TGI (NCI-H23 lung): 8.19 µM and 8.41 µM | GI50 (786-0 renal): 1.43 µM | TGI (786-0 renal): 2.87 µM | GI50 (TK-10 renal): 1.72 µM and 1.87 µM | TGI (TK-10 renal): 3.18 µM and 3.38 µM | GI50 (BT-549 breast): 1.69 µM | TGI (BT-549 breast): 3.23 µM | GI50 (UACC-62 melanoma): 0.875 µM and 1.57 µM | TGI (UACC-62 melanoma): 1.78 µM and 3.19 µM | GI50 (ACHN renal): 1.84 µM and 1.7 µM | TGI (ACHN renal): 3.66 µM and 3.95 µM | GI50 (SN12C renal): 1.38 µM | TGI (SN12C renal): 4.62 µM | GI50 (U251 CNS): 1.73 µM and 5.49 µM | TGI (U251 CNS): 3.69 µM and 9.77 µM | GI50 (SR leukemia): 0.231 µM | TGI (SR leukemia): 1.25 µM | GI50 (DU-145 prostate): 2.48 µM and 3.09 µM | TGI (DU-145 prostate): 6.64 µM and 8.84 µM

CCCC1C2=C(C(=O)OC2=O)C2C(CC)CC3=C(C(=O)OC3=O)C12 (stereo not drawn)
TGI (NCI-H23 lung): > 100 µM | TGI (786-0 renal): > 100 µM | TGI (TK-10 renal): > 100 µM | TGI (BT-549 breast): > 100 µM | TGI (UACC-62 melanoma): > 100 µM | TGI (ACHN renal): > 100 µM | TGI (SN12C renal): > 100 µM | TGI (U251 CNS): > 100 µM | TGI (SR leukemia): > 100 µM | TGI (DU-145 prostate): > 100 µM

CCS(=O)(=O)Nc1ccc(Oc2ccc(F)cc2F)c(-c2cn(C)c(=O)c3[nH]ccc23)c1
GI50 (NCI-H23 lung): 0.0956 µM | TGI (NCI-H23 lung): 13.5 µM | GI50 (786-0 renal): 0.192 µM | TGI (786-0 renal): 18.1 µM | GI50 (TK-10 renal): < 0.01 µM | TGI (TK-10 renal): 1.25 µM | GI50 (BT-549 breast): 0.366 µM | TGI (BT-549 breast): 21.3 µM | GI50 (UACC-62 melanoma): < 0.01 µM | TGI (UACC-62 melanoma): 6.28 µM | GI50 (ACHN renal): 0.153 µM | TGI (ACHN renal): 27.2 µM | GI50 (SN12C renal): 0.981 µM | TGI (SN12C renal): 31.2 µM | GI50 (U251 CNS): 0.293 µM | TGI (U251 CNS): 16.8 µM | GI50 (SR leukemia): 0.0444 µM | TGI (SR leukemia): 30.7 µM | GI50 (DU-145 prostate): 2.88 µM | TGI (DU-145 prostate): 31.4 µM

CCCCc1ccc(C(N)=O)nc1
GI50 (NCI-H23 lung): > 100 µM | TGI (NCI-H23 lung): > 100 µM | GI50 (786-0 renal): > 100 µM | TGI (786-0 renal): > 100 µM | GI50 (TK-10 renal): > 100 µM | TGI (TK-10 renal): > 100 µM | GI50 (BT-549 breast): > 100 µM | TGI (BT-549 breast): > 100 µM | GI50 (UACC-62 melanoma): > 100 µM | TGI (UACC-62 melanoma): > 100 µM | GI50 (ACHN renal): > 100 µM | TGI (ACHN renal): > 100 µM | GI50 (SN12C renal): > 100 µM | TGI (SN12C renal): > 100 µM | GI50 (U251 CNS): > 100 µM | TGI (U251 CNS): > 100 µM | GI50 (SR leukemia): > 100 µM | TGI (SR leukemia): > 100 µM | GI50 (DU-145 prostate): > 100 µM | TGI (DU-145 prostate): > 100 µM

CC(CCC/C=C/CCCN(C)C(=N)N)CC(C)C1OC(=O)C(C)C(O)/C=C/C(C)C(O)C(C)C(O)C(C)C(O)CCCC(O)CC2(O)OC(CC(OC(=O)CC(=O)O)CC(O)CC(O)C(C)C(O)/C=C/C=C/C1C)CC(O)C2O (stereo not drawn)
GI50 (NCI-H23 lung): 5.99 µM and 13.7 µg/mL | TGI (NCI-H23 lung): 20.8 µM and 29.4 µg/mL | GI50 (786-0 renal): 2.8 µM and 5.3 µg/mL | TGI (786-0 renal): 7.6 µM and 17.5 µg/mL | GI50 (TK-10 renal): 1.98 µM and 10.3 µg/mL | TGI (TK-10 renal): 4.17 µM and 21.4 µg/mL | GI50 (BT-549 breast): 2.19 µM and 3.16 µg/mL | TGI (BT-549 breast): 4.03 µM and 12 µg/mL | GI50 (UACC-62 melanoma): 2.13 µM and 8.05 µg/mL | TGI (UACC-62 melanoma): 4.52 µM and 19.1 µg/mL | GI50 (ACHN renal): 2 µM and 5.72 µg/mL | TGI (ACHN renal): 4.31 µM and 20.6 µg/mL | GI50 (SN12C renal): 2.22 µM and 2.78 µg/mL | TGI (SN12C renal): 4.97 µM and 12 µg/mL | GI50 (U251 CNS): 3.37 µM and 3.3 µg/mL | TGI (U251 CNS): 11.6 µM and 14.9 µg/mL | GI50 (SR leukemia): 2.59 µM and 3.67 µg/mL | TGI (SR leukemia): 4.88 µM and 47 µg/mL | GI50 (DU-145 prostate): 2.22 µM and 6.85 µg/mL | TGI (DU-145 prostate): 4.71 µM and 16 µg/mL

COc1ccc(/C=C2\CC(C)CC3C2=NN(C(C)=O)C3c2ccc(OC)c(OC)c2)cc1OC (stereo not drawn)
GI50 (NCI-H23 lung): 14.9 µM | TGI (NCI-H23 lung): 29.3 µM | GI50 (786-0 renal): 12.9 µM | TGI (786-0 renal): 27.4 µM | GI50 (TK-10 renal): 65 µM | TGI (TK-10 renal): > 100 µM | GI50 (BT-549 breast): 19 µM | TGI (BT-549 breast): 37.9 µM | GI50 (UACC-62 melanoma): 16.2 µM | TGI (UACC-62 melanoma): 33.3 µM | GI50 (ACHN renal): 17.6 µM | TGI (ACHN renal): 46.5 µM | GI50 (SN12C renal): 22.7 µM | TGI (SN12C renal): 62.3 µM | GI50 (U251 CNS): 14.3 µM | TGI (U251 CNS): 28 µM | GI50 (SR leukemia): 22.9 µM | TGI (SR leukemia): 74.4 µM | GI50 (DU-145 prostate): 19.7 µM | TGI (DU-145 prostate): 47.8 µM

Nc1cc2[nH]c(=O)c3cc(Cl)ccc3c2cc1Cl
TGI (NCI-H23 lung): 72.5 µM | TGI (786-0 renal): > 100 µM | TGI (TK-10 renal): 33.7 µM | TGI (BT-549 breast): > 100 µM | TGI (UACC-62 melanoma): > 100 µM | TGI (ACHN renal): 22.4 µM | TGI (SN12C renal): > 100 µM | TGI (U251 CNS): 26.1 µM | TGI (SR leukemia): > 100 µM | TGI (DU-145 prostate): 39.1 µM
